In patent publication US20250382556A1, “MODULATION OF THE BRANCHED-CHAIN METABOLITE CONTENT OF FRUITS AND VEGETABLES” (BOARD OF TRUSTEES OF MICHIGAN STATE UNIVERSITY, priority 2024, published 2025):

Tested on: apple fruit
Experiment: Headspace volatile ester emissions of ripening apple fruit treated with AHAS inhibitor
Assay type: in vivo, Malus x domestica Borkh.
Parameters: key to butyl acetate emissions compared to control / hexyl acetate emissions compared to control / ethyl acetate emissions compared to control / propyl acetate emissions compared to control: —: Dash indicates no significant difference between treatments
Conditions: for 2-methylbutyl acetate (ile) emissions compared to control / 2-methylpropyl acetate (val) emissions compared to control / butyl acetate emissions compared to control / ethyl acetate emissions compared to control / hexyl acetate emissions compared to control / pentyl acetate emissions compared to control / propyl acetate emissions compared to control / sum of anteiso- and iso-branched-chain esters emissions compared to control: 1 mM daily
Protocol: Whole apple fruit, freshly harvested and at an early stage of ripening (‘ripening’), were held at room temperature (22° C.) and rubbed daily with 3 mL of a freshly made 1mM solution of the inhibitor rimsulfuron (N-((4,6-dimethoxypyrimidin-2-yl)aminocarbonyl)-3-(ethylsulfonyl)-2-pyridinesulfonamide, made from DuPont MATRIX® SG, 25% w/w active ingredient; 0.1% Tween 20) or water solution containing 0.1% Tween 20 before preparation with further treatments. Flowering quince fruit were smaller than the apple fruit and had 2 mL of the control and treatment solutions applied daily at 22° C. ‘Gala’, ‘Empire’, and ‘Jonagold’ apple fruit were treated for four, nine, and seven days before further preparation, respectively. Flowering quince fruit were treated for six days before analysis. Headspace volatile emissions were monitored for three or four representative fruits during the incubation/treatment period to determine appropriate times for further treatments. During method testing, 1 mM solutions of the imidazolinone imazamox was also assessed with apple fruit (2-[4,5-dihydro-4-methyl-4-(1-methylethyl)-5-oxo-1H-imidazol-2-yl]-5-(methoxymethyl)-3-pyridinecarboxylic acid, made from RAPTOR®, 12.1% w/w active ingredient; 0.1% Tween 20).
Headspace volatiles from small tissue samples incubated in 22 mL vials were adsorbed for 30 s using a solid-phase micro extraction (SPME) fiber (65 μm PDMS-DVB; Supelco Analytical). The SPME fiber was then directly desorbed for 1 min in the injection port of a gas chromatograph (GC; HP-6890, Hewlett-Packard) coupled to a time-of-flight mass spectrometer (MS; Pegasus II, LECO). Whole fruits and banana slices were incubated for 20 min at room temperature (22° C.) in 1-L sealed Teflon jars before a 15-s, or 3-min adsorption and 1- or 2-min desorption. Adsorption times were adjusted to ensure instrument responses were in the linear range. All desorbed volatiles were cryofocused at the beginning of the column by immersing said region of the column in liquid nitrogen. After the desorption period, the run was initiated and the liquid nitrogen removed.
The conditions of the system were as follows. Injection port: 200° C., splitless, ultra-purified helium (99.999%) carrier gas, front inlet flow 1.5 mL·min^−1 constant, 10 mL·min^−1 purge flow, 11.5 mL·min^−1 total flow. Oven: initial temperature 40° C. for 0 min, ramped by 43° C.·min^−1 to 185° C. for 0 min. Column: HP-5 MS, 30 m×0.25 mm i.d., 0.25 μm film thickness (Agilent). Transfer line temperature 225° C. MS: Electron ionization (−70 eV), ion source temperature 200° C., solvent delay 50 sec, m/z range 29 to 400, detector voltage 1500 V, data collection rate 20 Hz.
Compounds were identified by comparison of the retention time and mass spectrum against authenticated reference standards and spectra (National Institute of Standards and Technology Mass Spectral Search Program Version 2.0, 2001). Volatiles were quantified by calibration with a standard of 59 authenticated, high-purity compounds (Sigma-Aldrich Co. and Fluka Chemical) including the target compounds. The standard was made by placing 0.5 μL of an equal-part mixture of the neat compounds onto a disc of filter paper before quickly placing the filter paper into a 4-L sealed flask fitted with a Mininert valve (for SPME fiber access, and allowed to vaporize for at least 6 hours. SPME adsorption and desorption times of the standard matched that of the samples quantified (e.g., 30-s adsorption, 1 min desorption when quantifying samples in 22-mL vials).
Statistical analysis was performed using SciPy (v1.6.2), RStudio (v2023.03.0+386), or Microsoft Excel (v16.89). Against a specified value: one-tailed t-test Against two treatments: paired t-test for banana, two-sample t-test for apple and flowering quince. Against more than two treatments: Tukey's test following significant ANOVA. Analyses of branched-chain amino acids were one-tailed, all other metabolites were two-tailed. […]

[1] = ripening Empire apple peel, nine days
[2] = ripening Gala apple peel, four days
[3] = ripening Jonagold apple peel, seven days

CCS(=O)(=O)c1cccnc1S(=O)(=O)NC(=O)Nc1nc(OC)cc(OC)n1 [rimsulfuron, N-((4,6-dimethoxypyrimidin-2-yl)aminocarbonyl)-3-(ethylsulfonyl)-2-pyridinesulfonamide]
concentration of pentyl acetate, more abundant when treated (all three cultivars (Gala, Empire, Jonagold), on average): 1.63 fold | 2-methylbutyl acetate (ile) emissions compared to control [1]: 1.9 ± 0.6% | 2-methylpropyl acetate (val) emissions compared to control [1]: 27.3 ± 5.4% | butyl acetate emissions compared to control [1]: — | ethyl acetate emissions compared to control [1]: 61.4 ± 7.9% | hexyl acetate emissions compared to control [1]: — | pentyl acetate emissions compared to control [1]: 161.9 ± 16.0% | propyl acetate emissions compared to control [1]: 53.8 ± 8.5% | sum of anteiso- and iso-branched-chain esters emissions compared to control [1]: 0.8 ± 0.2% | 2-methylbutyl acetate (ile) emissions compared to control [2]: 27.0 ± 6.3% | 2-methylpropyl acetate (val) emissions compared to control [2]: 36.4 ± 5.0% | butyl acetate emissions compared to control [2]: — | ethyl acetate emissions compared to control [2]: 57.7 ± 9.3% | hexyl acetate emissions compared to control [2]: — | pentyl acetate emissions compared to control [2]: 155.3 ± 17.5% | propyl acetate emissions compared to control [2]: — | sum of anteiso- and iso-branched-chain esters emissions compared to control [2]: 19.0 ± 4.5% | effect on butyl acetate (ripening Gala, Empire and Jonagold): no discernible effect | reduction of the total content of anteiso-branched-chain esters in the headspaces (ripening Gala, Empire and Jonagold apple fruits, on average): 91.2% | 2-methylpropyl acetate in headspace following treatment (ripening Gala, Empire and Jonagold, all three cultivars): reduced | 2-methylbutyl acetate (ile) emissions compared to control [3]: 16.1 ± 1.4% | 2-methylpropyl acetate (val) emissions compared to control [3]: 67.6 ± 4.1% | butyl acetate emissions compared to control [3]: — | ethyl acetate emissions compared to control [3]: — | hexyl acetate emissions compared to control [3]: 162.7 ± 19.2% | pentyl acetate emissions compared to control [3]: 172.3 ± 20.2% | propyl acetate emissions compared to control [3]: — | sum of anteiso- and iso-branched-chain esters emissions compared to control [3]: 6.5 ± 0.5%
